Reference: patent publication US20090269406A1, “Therapeutic uses of biocompatible biogel compositions” (priority 2008, published 2009)
Peptide text beside a SMILES is read from it. * marks the point of attachment. Dansyl = CN(C)c1cccc2c(S(=O)(=O)*)cccc12

Experiment: Effect of heparin-binding peptides on cellular viability (CellTiter 96 AQueous colorimetric metabolic assay)
Conditions: mouse, 3T3 fibroblasts
Description: 3T3 fibroblasts were incubated with various doses of W-PBD1 () and dG-PBD1 (▪) peptide (n=3). Viability was measured using a colorimetric metabolic assay based on the reduction of a tetrazolium salt into a formazan product.
In one example to show toxicity of two heparin binding peptides, 3T3 fibroblasts were treated with various concentrations of two different heparin binding peptides. Cell viability was assessed using the CellTiter 96® AQueous reagent (Promega, Madison, Wis.) after 1 hour at 37° C. in a humidified incubator with 5% CO2, following the manufacturer's protocol, incorporated by reference herein. Briefly, 3T3 fibroblasts were cultured at 37° C. in a humidified incubator with 5% CO2 using Dulbecco's modified Eagle Medium (DMEM) containing 10% fetal bovine serume (FBS), pen/strep, and 2 mM glutamine (Invitrogen). Serial dilutions of dG-PGB1 and W-PBD-1 using PBS as the diluent, and 75 μl of the dilutions were transferred in triplicate into the wells of a 96-well microtiter plate. […] Finally, the absorbance at 490 mm was measured with a microplate spectrophotometer. […] The amount of viable cells was determined by subtracting the absorbance readings of media containing blank wells from every other well and comparing the ratio of the absorbance reading for each sample with that of the positive control.

Compound `CC(C)C[C@H](NC(=O)[C@H](CCCCN)NC(=O)[C@H](C)NC(=O)[C@H](Cc1ccccc1)NC(=O)[C@H](C)NC(=O)[C@H](CCCCN)NC(=O)[C@@H](N)Cc1c[nH]c2ccccc12)C(=O)N[C@@H](C)C(=O)N[C@@H](C)C(=O)N[C@@H](CCCNC(=N)N)C(=O)N[C@@H](CC(C)C)C(=O)N[C@@H](Cc1ccc(O)cc1)C(=O)N[C@@H](CCCNC(=N)N)C(=O)N[C@@H](CCCCN)C(=O)N[C@@H](C)C(=O)NCC(=O)N[C@@H](CS)C(=O)O` [W-PBD1, WKAFAKLAARLYRKAGC] (H-WKAFAKLAARLYRKAGC-OH; N-terminus and C-terminus assumed) has a CC50 at 1 h of 58.1 ± 7.3 µM.
`CC(C)C[C@H](NC(=O)[C@H](CCCCN)NC(=O)[C@H](C)NC(=O)[C@H](Cc1ccccc1)NC(=O)[C@H](C)NC(=O)[C@H](CCCCN)NC(=O)CNS(=O)(=O)c1cccc2c(N(C)C)cccc12)C(=O)N[C@@H](C)C(=O)N[C@@H](C)C(=O)N[C@@H](CCCNC(=N)N)C(=O)N[C@@H](CC(C)C)C(=O)N[C@@H](Cc1ccc(O)cc1)C(=O)N[C@@H](CCCNC(=N)N)C(=O)N[C@@H](CCCCN)C(=O)N[C@@H](C)C(=O)NCC(=O)N[C@@H](CS)C(=O)O` [dG-PBD1, dansyl-GKAFAKLAARLYRKAGC] (Dansyl-GKAFAKLAARLYRKAGC-OH) gave a CC50 at 1 h of 19.3 ± 1.1 µM.
